In patent publication US12338263B2, “Antibacterial aminoglycoside derivatives” (priority 2019, dated 2025):

What was measured:
[1] = Evaluation of pharmacokinetics in rats; format: in vivo; settings: rat, plasma, male SD rats, 150 mg/kg single intravenous drop infusion for 30 minutes
Protocol: • 1) Experimental drug: Compound 1; • 2) Experimental animals: 3 male SD rats aged 7-9 weeks; • 3) Drug preparation: An appropriate amount of the drug was weighed and dissolved in saline to forma 60 mg/mL solution. Experimental Operation:
Animals were administered the drug at a dose of 150 mg/kg and a concentration of 60 mg/mL by a single intravenous drop infusion via the tail vein for 30 minutes. Plasma samples were collected from the animals at 0, 0.0333, 0.0833, 0.25, 0.5, 1, 2, 4, 6, 8 and 24 hours after administration. The LC-MS/MS method was used to determine the drug concentration in the plasma sample, and the kinetic parameters of the tested drug are shown in Table 2: […]

[2] = tested on: Klebsiella pneumoniae ATCC-BAA-1705; assay: Drug efficacy in mice (mouse pneumonia model); format: in vivo; settings: CD-1 mice, read at 24 h, FIG. 2
Protocol: 21 CD-1 mice were divided into 7 cages, 3 mice per cage, and were injected intraperitoneally with the immunosuppressant cyclophosphamide (150 mpk) on the 4th day.
On the first day, 7 cages of mice were injected intraperitoneally again with the immunosuppressant cyclophosphamide (100 mpk). The strain Kpn ATCC-BAA-1705 (Klebsiella pneumoniae ATCC-BAA-1705) was recovered on a MHA plate. The recovered colonies were picked and dissolved in saline to prepare Kpn ATCC-BAA-1705 bacterial solution with a concentration of 4.00E+08 CFU/mL for later use in mouse lung infection. The amount of bacterial solution infected in the lung of experimental mice was 50 μL/mouse, that is, the inoculation amount was 2.00E+07 CFU/mouse. At 2 h and 24 h infection, the lung tissue of the mice in control group was taken and placed in 5 mL saline, homogenized, and dotted on a plate with gradient dilution.
The specific administration of mice was as follows: • (1) 2 h after infection: At the end of 2 h after infection, the lung tissue of the mice in the first cage was taken and placed in 5 mL saline, homogenized, and dotted on a plate with gradient dilution, two duplications for each mouse. The amount of bacteria loaded in the lung tissue of the mouse was counted. Mice in the third and fourth cages were injected respectively with 30 mpk and 10 mpk compound Plazomicin subcutaneously, mice in the fifth and sixth cages were injected respectively with 30 mpk and 10 mpk compound subcutaneously, and mice in the seventh cage were injected with 100 mpk meropenem subcutaneously. • (2) 10 h after infection: Mice in the third and fourth cages were injected respectively with 30 mpk and 10 mpk plazomicin subcutaneously, mice in the fifth and sixth cages were injected respectively with 30 mpk and 10 mpk compound 1 subcutaneously, and mice in the seventh cage were injected with 100 mpk meropenem subcutaneously. At the end of 24 h infection, the lung tissue of the mice in the second to seventh cages was taken and placed in 5 mL saline, homogenized, and dotted on a plate with gradient dilution, two duplications for each mouse. The amount of bacteria carried in the lung tissue of the mouse was counted, and the experimental results were summarized and shown in FIG. 2.

[3] = tested on: auditory function in guinea pigs; assay: Auditory safety: compound action potential (CAP) in guinea pigs; format: in vivo; settings: guinea pig, in vivo, sc, 100 mg/kg
Protocol: (§1) Healthy adult guinea pigs (150-250 g) were employed as the research objects, and were randomly divided into saline control group, gentamicin group, compound Plazomicin group and Compound 1 group, with 8 animals in each group. Subcutaneous administration is used, and the following assays were carried out during and after the administration for 14 consecutive days: • 1. To analyze the effects of different drugs on the auditory function of guinea pigs, the compound action potential (CAP) of animals was recorded on the 14th day (29th day, i.e., 4 weeks) after administration. The results obtained were analyzed and the changes of the threshold shift, amplitude, latency and other indicators among different treatment groups were compared. • 2. After the different groups of animals were processed and the auditory function data thereof were collected, the cochlea of the animals was taken out for fixation and staining. Surface preparation of basilar membrane of the cochlea on one side was performed to count the loss of hair cells so as to make a cochlea map, and the cochlea on the other side was decalcified and frozen sectioned. The density of spiral ganglion neurons was counted and compared among groups. Research Results: 1. Administration Method and Treatment
(§2) Gentamicin from Dalian Meilun Biotechnology Co., Ltd., and Plazomicin and Compound 1 from WuXi AppTec (WuHan) Co., Ltd. are used, the solution of which were prepared just before use each time by using saline for dissolution to the concentration of 50 mg/mL, and the injection dose was 100 mg/kg body weight. Method: subcutaneous injection, and confirmation of no liquid leakage after each injection.
The compound action potential (CAP) was tested and recorded when clicks and different frequencies of pure tones (1 KHz-32 kHz) were applied to each group of animals, and variations in amplitude and latency were mainly compared when clicks and medium and high frequency pure tones (16, 32 kHz) were applied. The magnitude of amplitude reflects the responsiveness of hair cells and auditory nerves. The larger the amplitude and the greater the slope of the I/O curve were, the better the responsiveness and the better the function were. In addition, the cochlea from apical turn to basal turn was responsive to sounds from low-frequency to high-frequency respectively, which is the frequency correspondence of the cochlear basilar membrane. The functional changes to different frequencies correspond to the different structural and functional changes of the cochlea fromapical turn to basal turn. The length of latency was also related to the function of the hair cells and auditory nerve response. Generally speaking, increasing of the threshold value when the cochlea was injured would inevitably lead to the extension of latency. […] In other words, the extension of latency reflected the decrease of response function. The previous ototoxicity of aminoglycoside antibiotics was mainly concentrated in the high-frequency area. In this study, the gentamicin group was consistent with previous results, as summarized below.

cochlear hair cells = assay: Auditory safety: hair cell staining and counting on the basilar membrane of the cochlea; format: in vivo, guinea pigs
Protocol: as §1, §2
In order to compare the effects of different drugs on hair cells, hair cell staining and counting on the whole basilar membrane of the cochlea are performed. […] The Plazomicin group had 11.2-28.1% loss of outer hair cells in the high frequency (70-100% from the apical turn) and 16.7-24.2% loss of the outer hair cells at the beginning of the apical turn (10-20%). However, in the Compound 1 group, the loss of outer hair cells only occurred in the low-frequency region (from the top turn −40%), in which the loss rate of outer hair cells was about 2.5-11%, and the outer hair cells were relatively intact in the high frequency area (see FIG. 6 B).

Structure (SMILES): CN[C@@H]1[C@@H](O)[C@@H](O[C@@H]2[C@@H](O)[C@H](O[C@H]3OC(CNCCOCCONC(=N)N)=CC[C@H]3N)[C@@H](N)C[C@H]2NC(=O)[C@@H](O)CCN)OC[C@]1(C)O [Compound 1]
- AUC ([1]; read-out: Area Under the Curve AUC): 440 µM·h
- clearance ([1]; read-out: Clearance Rate Cl): 0.569 L/h/kg
- half-life ([1]; read-out: Half-Life T1/2 (converted)): 3.62 h
- Cmax ([1]; read-out: Maximum Concentration Cmax): 316 µM
- Vd ([1]; read-out: Volume of Distribution Vd): 1.5 L/kg
- in vivo activity in lung infection model (bacteria in lung tissue) ([2]; 10 mpk and 30 mpk subcutaneously 2 h and 10 h after infection): good in vivo activity
- efficacy at a dose of 10 mpk in lung infection model ([2]; 10 mpk subcutaneously 2 h and 10 h after infection): equivalent to that of Plazomicin at a dose of 30 mpk
- efficacy compared with Plazomicin in lung infection model ([2]; subcutaneously 2 h and 10 h after infection): better than that of Plazomicin
- CAP amplitude under click [3]: consistent with the Control group
- hearing damage (CAP amplitude) at 16 kHz [3]: no different from the Control group
- hearing damage to experimental animals (CAP amplitude, overall) [3]: significantly lower than that of Gentamicin and Plazomicin
- CAP amplitude at 16 kHz ([3]; 29 day): 381.646±20.895 uv
- CAP amplitude at 32 kHz ([3]; 29 day): 79.420±7.000 uv
- hearing damage (CAP amplitude) at 32 kHz ([3]; 29 day): 34.7%
- reduction of hearing damage at 32 kHz compared to Gentamicin ([3]; 29 day): 39.6%
- reduction of hearing damage at 32 kHz compared to Plazomicin ([3]; 29 day): 13.5%
- loss rate of outer hair cells (cochlear hair cells; guinea pig, in vivo, 29 day): 2.5-11%
- damage to inner hair cells (overall) (cochlear hair cells; guinea pig, in vivo, sc, 100 mg/kg): almost undamaged
- hair cell toxicity (overall) (cochlear hair cells; guinea pigs, 100 mg/kg subcutaneous 14 days): significantly lower than that of the Gentamicin and the Plazomicin
